Here are results for three compounds from PubChem BioAssay AID1963845 (Molecular Pharmacology Branch, DTP, NCI, 2024).

As a reminder, the viability, T/C is the result in the treated group divided by that in the control group, in per cent.
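Further: luminescence signal used as surrogate measure of viable cells; spheroids exposed to compounds for seven days before readout; 100% = DMSO vehicle control viability as luminescence relative to vehicle.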

For one assay, the system named is 429239-143-T-J1-PDC complex spheroid viability. As to the kind of experiment: Anticancer human tumor 429239-143-T-J1-PDC patient-derived small cell lung carcinoma cell line growth inhibition [POLQ]. Particulars: second compound 3.16 µM; first compound 0.1 µM; stronger effect = lower value. In a few lines: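 Three-cell-type spheroids modelling solid tumor plus stroma served as the readout system; POL inhibitors were tested individually and in combination, concentration ranges set by clinical Cmax where known.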
As to `CC(C)n1c(=O)n(C)c2cnc3cc(F)c(-c4ccc(OCCCN5CCCCC5)nc4)cc3c21` + Nc1ccc(C#CCN(C(=O)Cc2ncc(C(F)(F)F)cc2C(F)(F)F)c2ccc(F)cc2)nn1, the viability, T/C was 91.4%.

Take `COc1ccc([C@@H](O)c2cc(-c3ncnc4cc(N5CCOCC5)ccc34)c(F)cc2Cl)nn1` + Nc1ccc(C#CCN(C(=O)Cc2ncc(C(F)(F)F)cc2C(F)(F)F)c2ccc(F)cc2)nn1: the viability, T/C is 102%.

The assay is the same for the next values; noted with them: second compound 3.16 µM; first compound 0.316 µM; stronger effect = lower value.
With `C=CC(=O)N1CCN(c2nc(=O)n(-c3c(C)ccnc3C(C)C)c3nc(-c4c(O)cccc4F)c(F)cc23)C(C)C1` (configuration not stated) + Nc1ccc(C#CCN(C(=O)Cc2ncc(C(F)(F)F)cc2C(F)(F)F)c2ccc(F)cc2)nn1, the viability, T/C is 109%.

For the compound `CC(C)n1c(=O)n(C)c2cnc3cc(F)c(-c4ccc(OCCCN5CCCCC5)nc4)cc3c21` + Nc1ccc(C#CCN(C(=O)Cc2ncc(C(F)(F)F)cc2C(F)(F)F)c2ccc(F)cc2)nn1, the viability, T/C was 98.9%.

As for `COc1ccc([C@@H](O)c2cc(-c3ncnc4cc(N5CCOCC5)ccc34)c(F)cc2Cl)nn1` + Nc1ccc(C#CCN(C(=O)Cc2ncc(C(F)(F)F)cc2C(F)(F)F)c2ccc(F)cc2)nn1, the viability, T/C was 96.8%.

The same assay, now with this note: second compound 3.16 µM; first compound 1 µM; stronger effect = lower value.
Take `C=CC(=O)N1CCN(c2nc(=O)n(-c3c(C)ccnc3C(C)C)c3nc(-c4c(O)cccc4F)c(F)cc23)C(C)C1` (configuration not stated) + Nc1ccc(C#CCN(C(=O)Cc2ncc(C(F)(F)F)cc2C(F)(F)F)c2ccc(F)cc2)nn1: the viability, T/C was 115%.

Regarding `CC(C)n1c(=O)n(C)c2cnc3cc(F)c(-c4ccc(OCCCN5CCCCC5)nc4)cc3c21` + Nc1ccc(C#CCN(C(=O)Cc2ncc(C(F)(F)F)cc2C(F)(F)F)c2ccc(F)cc2)nn1, the viability, T/C was 98.6%.

Take `COc1ccc([C@@H](O)c2cc(-c3ncnc4cc(N5CCOCC5)ccc34)c(F)cc2Cl)nn1` + Nc1ccc(C#CCN(C(=O)Cc2ncc(C(F)(F)F)cc2C(F)(F)F)c2ccc(F)cc2)nn1: the viability, T/C is 96.6%.

The assay is the same for the next values; noted with them: second compound 3.16 µM; first compound 3.16 µM; stronger effect = lower value.
`C=CC(=O)N1CCN(c2nc(=O)n(-c3c(C)ccnc3C(C)C)c3nc(-c4c(O)cccc4F)c(F)cc23)C(C)C1` (configuration not stated) + Nc1ccc(C#CCN(C(=O)Cc2ncc(C(F)(F)F)cc2C(F)(F)F)c2ccc(F)cc2)nn1: the viability, T/C was 104%.

For `CC(C)n1c(=O)n(C)c2cnc3cc(F)c(-c4ccc(OCCCN5CCCCC5)nc4)cc3c21` + Nc1ccc(C#CCN(C(=O)Cc2ncc(C(F)(F)F)cc2C(F)(F)F)c2ccc(F)cc2)nn1, the viability, T/C is 100%.

For `COc1ccc([C@@H](O)c2cc(-c3ncnc4cc(N5CCOCC5)ccc34)c(F)cc2Cl)nn1` + Nc1ccc(C#CCN(C(=O)Cc2ncc(C(F)(F)F)cc2C(F)(F)F)c2ccc(F)cc2)nn1, the viability, T/C was 78.7%.

The assay is the same for the next values; noted with them: second compound 3.16 µM; first compound 10 µM; stronger effect = lower value.
With `C=CC(=O)N1CCN(c2nc(=O)n(-c3c(C)ccnc3C(C)C)c3nc(-c4c(O)cccc4F)c(F)cc23)C(C)C1` (configuration not stated) + Nc1ccc(C#CCN(C(=O)Cc2ncc(C(F)(F)F)cc2C(F)(F)F)c2ccc(F)cc2)nn1, the viability, T/C is 97.3%.

Take `CC(C)n1c(=O)n(C)c2cnc3cc(F)c(-c4ccc(OCCCN5CCCCC5)nc4)cc3c21` + Nc1ccc(C#CCN(C(=O)Cc2ncc(C(F)(F)F)cc2C(F)(F)F)c2ccc(F)cc2)nn1: the viability, T/C is 91.1%.

In the case of `COc1ccc([C@@H](O)c2cc(-c3ncnc4cc(N5CCOCC5)ccc34)c(F)cc2Cl)nn1` + Nc1ccc(C#CCN(C(=O)Cc2ncc(C(F)(F)F)cc2C(F)(F)F)c2ccc(F)cc2)nn1, the viability, T/C was 43.5%.

The assay is the same for the next values; noted with them: second compound 10 µM; first compound 0.0316 µM; stronger effect = lower value.
Take `C=CC(=O)N1CCN(c2nc(=O)n(-c3c(C)ccnc3C(C)C)c3nc(-c4c(O)cccc4F)c(F)cc23)C(C)C1` (configuration not stated) + Nc1ccc(C#CCN(C(=O)Cc2ncc(C(F)(F)F)cc2C(F)(F)F)c2ccc(F)cc2)nn1: the viability, T/C is 104%.

Take `CC(C)n1c(=O)n(C)c2cnc3cc(F)c(-c4ccc(OCCCN5CCCCC5)nc4)cc3c21` + Nc1ccc(C#CCN(C(=O)Cc2ncc(C(F)(F)F)cc2C(F)(F)F)c2ccc(F)cc2)nn1: the viability, T/C is 105%.

With `COc1ccc([C@@H](O)c2cc(-c3ncnc4cc(N5CCOCC5)ccc34)c(F)cc2Cl)nn1` + Nc1ccc(C#CCN(C(=O)Cc2ncc(C(F)(F)F)cc2C(F)(F)F)c2ccc(F)cc2)nn1, the viability, T/C was 95.2%.

The assay is the same for the next values; noted with them: second compound 10 µM; first compound 0.1 µM; stronger effect = lower value.
Take `C=CC(=O)N1CCN(c2nc(=O)n(-c3c(C)ccnc3C(C)C)c3nc(-c4c(O)cccc4F)c(F)cc23)C(C)C1` (configuration not stated) + Nc1ccc(C#CCN(C(=O)Cc2ncc(C(F)(F)F)cc2C(F)(F)F)c2ccc(F)cc2)nn1: the viability, T/C is 98.8%.

`CC(C)n1c(=O)n(C)c2cnc3cc(F)c(-c4ccc(OCCCN5CCCCC5)nc4)cc3c21` + Nc1ccc(C#CCN(C(=O)Cc2ncc(C(F)(F)F)cc2C(F)(F)F)c2ccc(F)cc2)nn1: the viability, T/C is 103%.

`COc1ccc([C@@H](O)c2cc(-c3ncnc4cc(N5CCOCC5)ccc34)c(F)cc2Cl)nn1` + Nc1ccc(C#CCN(C(=O)Cc2ncc(C(F)(F)F)cc2C(F)(F)F)c2ccc(F)cc2)nn1: the viability, T/C is 94.4%.

The assay is the same for the next values; noted with them: second compound 10 µM; first compound 0.316 µM; stronger effect = lower value.
Consider `C=CC(=O)N1CCN(c2nc(=O)n(-c3c(C)ccnc3C(C)C)c3nc(-c4c(O)cccc4F)c(F)cc23)C(C)C1` (configuration not stated) + Nc1ccc(C#CCN(C(=O)Cc2ncc(C(F)(F)F)cc2C(F)(F)F)c2ccc(F)cc2)nn1, for which the viability, T/C is 111%.

Take `CC(C)n1c(=O)n(C)c2cnc3cc(F)c(-c4ccc(OCCCN5CCCCC5)nc4)cc3c21` + Nc1ccc(C#CCN(C(=O)Cc2ncc(C(F)(F)F)cc2C(F)(F)F)c2ccc(F)cc2)nn1: the viability, T/C is 97.3%.

As to `COc1ccc([C@@H](O)c2cc(-c3ncnc4cc(N5CCOCC5)ccc34)c(F)cc2Cl)nn1` + Nc1ccc(C#CCN(C(=O)Cc2ncc(C(F)(F)F)cc2C(F)(F)F)c2ccc(F)cc2)nn1, the viability, T/C was 108%.

The same assay, now with this note: second compound 10 µM; first compound 1 µM; stronger effect = lower value.
As for `C=CC(=O)N1CCN(c2nc(=O)n(-c3c(C)ccnc3C(C)C)c3nc(-c4c(O)cccc4F)c(F)cc23)C(C)C1` (configuration not stated) + Nc1ccc(C#CCN(C(=O)Cc2ncc(C(F)(F)F)cc2C(F)(F)F)c2ccc(F)cc2)nn1, the viability, T/C was 108%.

With `CC(C)n1c(=O)n(C)c2cnc3cc(F)c(-c4ccc(OCCCN5CCCCC5)nc4)cc3c21` + Nc1ccc(C#CCN(C(=O)Cc2ncc(C(F)(F)F)cc2C(F)(F)F)c2ccc(F)cc2)nn1, the viability, T/C is 99.4%.

As to `COc1ccc([C@@H](O)c2cc(-c3ncnc4cc(N5CCOCC5)ccc34)c(F)cc2Cl)nn1` + Nc1ccc(C#CCN(C(=O)Cc2ncc(C(F)(F)F)cc2C(F)(F)F)c2ccc(F)cc2)nn1, the viability, T/C was 97%.

The assay is the same for the next values; noted with them: second compound 10 µM; first compound 3.16 µM; stronger effect = lower value.
Take `C=CC(=O)N1CCN(c2nc(=O)n(-c3c(C)ccnc3C(C)C)c3nc(-c4c(O)cccc4F)c(F)cc23)C(C)C1` (configuration not stated) + Nc1ccc(C#CCN(C(=O)Cc2ncc(C(F)(F)F)cc2C(F)(F)F)c2ccc(F)cc2)nn1: the viability, T/C is 95.7%.

Turning to `CC(C)n1c(=O)n(C)c2cnc3cc(F)c(-c4ccc(OCCCN5CCCCC5)nc4)cc3c21` + Nc1ccc(C#CCN(C(=O)Cc2ncc(C(F)(F)F)cc2C(F)(F)F)c2ccc(F)cc2)nn1, the viability, T/C is 91.5%.

On to `COc1ccc([C@@H](O)c2cc(-c3ncnc4cc(N5CCOCC5)ccc34)c(F)cc2Cl)nn1` + Nc1ccc(C#CCN(C(=O)Cc2ncc(C(F)(F)F)cc2C(F)(F)F)c2ccc(F)cc2)nn1, for which the viability, T/C was 72.1%.

Staying with this assay, now noted: second compound 10 µM; first compound 10 µM; stronger effect = lower value.
Consider `C=CC(=O)N1CCN(c2nc(=O)n(-c3c(C)ccnc3C(C)C)c3nc(-c4c(O)cccc4F)c(F)cc23)C(C)C1` (configuration not stated) + Nc1ccc(C#CCN(C(=O)Cc2ncc(C(F)(F)F)cc2C(F)(F)F)c2ccc(F)cc2)nn1, for which the viability, T/C is 96.8%.

`CC(C)n1c(=O)n(C)c2cnc3cc(F)c(-c4ccc(OCCCN5CCCCC5)nc4)cc3c21` + Nc1ccc(C#CCN(C(=O)Cc2ncc(C(F)(F)F)cc2C(F)(F)F)c2ccc(F)cc2)nn1: the viability, T/C was 94.3%.

Consider `COc1ccc([C@@H](O)c2cc(-c3ncnc4cc(N5CCOCC5)ccc34)c(F)cc2Cl)nn1` + Nc1ccc(C#CCN(C(=O)Cc2ncc(C(F)(F)F)cc2C(F)(F)F)c2ccc(F)cc2)nn1, for which the viability, T/C was 41.6%.
